Experimental data as given in patent publication US8822494B2 (Pfizer Inc., priority 2012, dated 2014).
Read-outs that look alike come from different tables or passages of the source.

Tests used:
Human D1 [1] = target: T1, Human D1 (Homo sapiens (Human), UniProt P21728); assay: Human D1 Receptor Binding Assay ([3H]-SCH23390 competition); conditions: read-out: Human D1 Receptor Binding, Ki (μM); Geometric mean of 2-3 determinations; over-expressing LTK human cell lines, 0.5 nM [3H]-SCH23390, 30 min at 37° C.; footnote b = single determination, c = geometric mean of ≧4 determinations
T1 sequence (P21728 whole entry): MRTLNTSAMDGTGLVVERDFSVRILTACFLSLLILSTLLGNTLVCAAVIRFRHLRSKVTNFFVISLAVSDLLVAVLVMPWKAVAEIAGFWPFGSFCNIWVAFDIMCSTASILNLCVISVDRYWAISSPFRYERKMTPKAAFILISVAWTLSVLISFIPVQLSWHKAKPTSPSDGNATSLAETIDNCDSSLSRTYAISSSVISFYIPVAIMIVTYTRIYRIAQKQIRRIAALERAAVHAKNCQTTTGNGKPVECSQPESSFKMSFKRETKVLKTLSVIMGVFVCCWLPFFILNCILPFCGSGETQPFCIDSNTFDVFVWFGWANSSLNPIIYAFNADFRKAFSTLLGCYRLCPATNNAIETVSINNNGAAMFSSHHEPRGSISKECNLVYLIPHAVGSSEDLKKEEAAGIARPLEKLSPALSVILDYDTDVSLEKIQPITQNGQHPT
Protocol: D1 binding assays were performed using over-expressing LTK human cell lines. […] These ligand and tissue concentrations were used in time course studies to determine linearity and equilibrium conditions for binding. […] The pellet was resuspended in assay buffer [50 mM Tris (pH 7.4@ RT) containing 4 mM MgSO4 and 0.5 mM EDTA]. […] Non-specific binding was determined by radioligand binding in the presence of a saturating concentration of (+)-Butaclamol (10 μM), a D1 antagonist. After a 30 minute incubation period at 37° C., assay samples were rapidly filtered through Unifilter-96 GF/B PEI-coated filter plates and rinsed with 50 mM Tris buffer (pH 7.4 at 4° C.). […] Ki values were calculated according to the Cheng-Prusoff equation: […]

Human D1 [2] = target: T1, Human D1; assay: D1 cAMP HTRF Assay; type: cell-based; conditions: HEK293T/hD1#1 stable cell line, 30 min at room temperature, footnote a = geometric mean of ≧7 determinations
Excerpt: This assay was used to determine the ability of a test compound to agonize (including partially agonize) D1. A Mab anti-cAMP labeled Cryptate visualizes the tracer. […] The signal, therefore, is inversely proportional to the concentration of cAMP in the sample.
The cAMP Dynamic kit was obtained from Cisbio International (Cisbio 62AM4PEJ). Multidrop Combi (Thermo Scientific) was used for assay additions. An EnVision (PerkinElmer) reader was used to read HTRF.
A HEK293T/hD1#1 stable cell line was constructed internally (Pfizer Ann Arbor).
Media was removed and cell pellet was re-suspended in PBS/[…] generating 2e5 cells/mL. […] Working solutions of cAMP-D2 and anti-cAMP-cryptate were prepared according to Cisbio instructions. […] The assay plate was incubated for 1 hour at room temperature. The assay plate was read on an EnVision plate reader using Cisbio recommended settings.
Data analysis was done using computer software. Percent effects were calculated from the compound controls. Ratio EC50 was determined using the raw ratio data from the EnVision reader. The cAMP standard curve was used in an analysis program to determine cAMP concentrations from raw ratio data. cAMP EC50 was determined using the calculated cAMP data.

Row | SMILES | Ki (Human D1 [1]) | EC50 (Human D1 [2]) | EC50 (Human D1 [2]; read-out: Human D1 cAMP HTRF, EC50 (μM), Geometric mean of 2-6 determinations)
1 | Cc1cc(Oc2nccc3n[nH]cc23)ccc1-c1c(C)c(=O)[nH]c(=O)n1C (single isomer, unassigned) [Example 8, (−)-1,5-dimethyl-6-[2-methyl-4-(1H-pyrazolo[4,3-c]pyridin-4-yloxy)phenyl]pyrimidine-2,4(1H,3H)-dione] | 0.00183 µM | < 0.00222 µM | 
2 | Cc1ncnc(N2CC(F)C2)c1-c1ccc(Oc2nccc3[nH]ccc23)cc1F [Example 25, 4-{3-fluoro-4-[4-(3-fluoroazetidin-1-yl)-6-methylpyrimidin-5-yl]phenoxy}-1H-pyrrolo[3,2-c]pyridine] | 0.00509 µM | 0.156 µM | 
3 | Cc1ncnc(C)c1-c1ccc(Oc2nccc3[nH]ccc23)cc1Cl [Example 24, 4-[3-chloro-4-(4,6-dimethylpyrimidin-5-yl)phenoxy]-1H-pyrrolo[3,2-c]pyridine] | 0.00984 µM | 0.102 µM | 
4 | Cc1ncnc(C#N)c1-c1ccc(Oc2nccc3[nH]ccc23)cc1F [Example 16, 5-[2-fluoro-4-(1H-pyrrolo[3,2-c]pyridin-4-yloxy)phenyl]-6-methylpyrimidine-4-carbonitrile] | 0.0283 µM | 0.396 µM | 
5 | Cc1cc(Oc2nccc3[nH]ccc23)ccc1-c1c(C)ncc2nccn12 [Example 14, 6-methyl-5-[2-methyl-4-(1H-pyrrolo[3,2-c]pyridin-4-yloxy)phenyl]imidazo[1,2-a]pyrazine] | 0.00798 µM | 0.137 µM | 
6 | Cc1cc(Oc2nccc3[nH]ccc23)ccc1-c1cc(=O)[nH]nc1C [Example 29, 6-methyl-5-[2-methyl-4-(1H-pyrrolo[3,2-c]pyridin-4-yloxy)phenyl]pyridazin-3(2H)-one] | 0.0679 µM | 0.119 µM | 
7 | Cc1cc(Oc2nccc3[nH]ccc23)ccc1-c1c(C)ncc(=O)n1C (single isomer, unassigned) [Example 26, (−)-1,5-dimethyl-6-[2-methyl-4-(1H-pyrrolo[3,2-c]pyridin-4-yloxy)phenyl]pyrazin-2(1H)-one] | 0.00456 µM | 0.073 µM | 
8 | Cc1cc(Oc2nccc3[nH]ccc23)ccc1-c1c(C)cnnc1C (single isomer, unassigned; ent-2) [Example 12, 4-[4-(3,5-dimethylpyridazin-4-yl)-3-methylphenoxy]-1H-pyrrolo[3,2-c]pyridine, ENT-2] | 0.0883 µM |  | 0.52 µM
9 | Cc1cc(Oc2nccc3[nH]ncc23)ccc1-c1cc(=O)[nH]nc1C [Example 31, 6-methyl-5-[2-methyl-4-(1H-pyrazolo[4,3-c]pyridin-4-yloxy)phenyl]pyridazin-3(2H)-one] | 0.287 µM | 0.548 µM | 
10 | Cc1cc(Oc2nccc3n[nH]cc23)ccc1-c1c(C)ncc(=O)n1C (single isomer, unassigned) [Example 39, (−)-1,5-dimethyl-6-[2-methyl-4-(1H-pyrazolo[4,3-c]pyridin-4-yloxy)phenyl]pyrazin-2(1H)-one] | 0.0418 µM | 0.168 µM | 
11 | Cc1ncnc(C)c1-c1ccc(Oc2nccc3[nH]ccc23)c(F)c1F [Example 23, 4-[4-(4,6-dimethylpyrimidin-5-yl)-2,3-difluorophenoxy]-1H-pyrrolo[3,2-c]pyridine] | 0.0538 µM | 0.59 µM | 

More lines, main results first:

Row | Ki (Human D1 [1]) | EC50 (Human D1 [2]) | SMILES | EC50 (Human D1 [2]; read-out: Human D1 cAMP HTRF, EC50 (μM), Geometric mean of 2-6 determinations)
12 | 0.0409 µM | 0.127 µM | Cc1n[nH]c(=O)c(C)c1-c1ccc(Oc2nccc3[nH]ncc23)cc1 [Example 41, 4,6-dimethyl-5-[4-(1H-pyrazolo[4,3-c]pyridin-4-yloxy)phenyl]pyridazin-3(2H)-one] | 
13 | 0.129 µM | 2.52 µM | Cc1ncnc(C)c1-c1ccc(Oc2nccc3[nH]ncc23)cc1 [Example 38, 4-[4-(4,6-dimethylpyrimidin-5-yl)phenoxy]-1H-pyrazolo[4,3-c]pyridine] | 
14 | 0.695 µM | 1.3 µM | COc1cnc(Oc2ccc(-c3c(C)n[nH]c(=O)c3C)cc2)c2cn[nH]c12 [Example 47, 5-{4-[(7-methoxy-1H-pyrazolo[4,3-c]pyridin-4-yl)oxy]phenyl}-4,6-dimethylpyridazin-3(2H)-one] | 
15 | 0.0247 µM | 0.0891 µM | Cc1cc2[nH]ncc2c(Oc2ccc(-c3c(C)n[nH]c(=O)c3C)cc2)n1 [Example 46, 4,6-dimethyl-5-{4-[(6-methyl-1H-pyrazolo[4,3-c]pyridin-4-yl)oxy]phenyl}pyridazin-3(2H)-one] | 
16 | 0.0175 µM | 0.0282 µM | Cc1c(-c2ccc(Oc3nccc4[nH]ncc34)cc2)n(C)c(=O)[nH]c1=O [Example 43, 1,5-dimethyl-6-[4-(1H-pyrazolo[4,3-c]pyridin-4-yloxy)phenyl]pyrimidine-2,4(1H,3H)-dione] | 
